Reference: patent US8415312B2, “Compound which is a nystatin derivative” (Biosergen AS, priority 2007, dated 2013)
In brackets after ≈: the same amount, converted by molar mass. Several values for one entry are separate records, joined by “and”; a condition that tells them apart may be missing. Identical values can stand only once.

How the values were obtained:
[1] = tested on: Candida albicans ATCC 14053; experiment: Antifungal susceptibility study (1), broth microdilution MIC; assay type: cell-based; conditions: lowest concentration preventing any visible growth, read at 48 hours, 35° C., RPMI 1640 pH 7.0
Summary of the method: (§1)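 Broth microdilution in test medium at pH 7.0 with two-fold compound dilutions (DMSO stocks diluted 50-fold into medium), inoculated with freshly grown yeast cultures. Plates were incubated without agitation at 35° C. for C. albicans or 25° C. for C. humicolus. MIC was taken as the concentration with no visible growth, read at 48 hours.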

[2] = tested on: Cryptococcus humicolus ATCC 9949; experiment: as above; assay type: cell-based; conditions: lowest concentration preventing any visible growth, read at 48 hours, 25° C., RPMI 1640 pH 7.0
Summary of the method: as §1

[3] = tested on: Aspergillus niger ATCC 16404; experiment: as above; assay type: cell-based; conditions: lowest concentration preventing any visible growth, read at 48 hours, 35° C., RPMI 1640 pH 7.0
Summary of the method: (§2)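 Broth microdilution was run at pH 7.0 with compounds diluted from DMSO solutions and mixed 1:1 with conidial inoculum. Spore suspensions were adjusted to OD530 0.09-0.11 for A. niger or 0.15-0.17 for F. oxysporum, then diluted 1:50. Plates were incubated at 35° C without agitation, and MIC was read at 48 hours as absence of visible growth.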

[4] = tested on: Fusarium oxysporum VKM F-140; experiment: as above; assay type: cell-based; conditions: lowest concentration preventing any visible growth, read at 48 hours, 35° C., RPMI 1640 pH 7.0
Summary of the method: as §2

[5] = tested on: Candida albicans ATCC 10231; experiment: Antifungal susceptibility study (2), MIC50 by OD490 growth; assay type: cell-based; conditions: 50% growth inhibition from regression curve, M19 medium without NaCl, 30° C.
Protocol: The anti-fungal activity of several of the nystatin derivatives was further investigated. […] The anti-fungal activity of a number of the nystatin derivatives was therefore determined in a method which is designed to be more sensitive.
The test organism used for the further testing of polyene macrolide bioactivity was Candida albicans ATCC 10231, grown in 120 μl of standard M19 medium without NaCl (with an inoculum of 1000 cfu per well) and 30 μl of diluted polyene macrolide samples. The antibiotics were diluted in MeOH in series ensuring a spectrum of concentrations which yielded results ranging from complete growth inhibition to no inhibition of the test organism. The test organism cultures with antibiotic dilutions were incubated in 96-well microtiter plates at 30° C. without shaking, and growth was measured as OD490 after 12, 14 and 16 hours on a SpectraMax Plus microtiter plate reader. OD was plotted against antibiotic concentration, and MIC50 was estimated from the regression curve at 50% growth inhibition.

[6] = tested on: mice (C57B1/6xDBA/2)F1 B6D2F1; conditions: single injection into tail vein, probit analysis
Protocol: (§3) Male mice of hybrids of first generation (C57B1/6xDBA/2)F1 B6D2F1, weight 20-22 g., received from the Central farm. “Kryukovo” of Russian Academies of Medical Science (RAMS) were used. Animals were maintained in a vivarium in plastic cages (with hardwood bedding in environmentally controlled conditions: 24±1° C., 12/12 hours light/dark cycle) on a standard diet of bricketed forages with easy access to drinking water (ad libitum). After a 2-week quarantine period, healthy animals were used in experimental work.
(§4) The solutions were prepared as follows: dry antibiotic substances (5 mg) were mixed with dry sodium deoxycholate (4.1 mg) in a sterile glass vial. 10 mL of phosphate buffer (NaH2PO4—1.59 g; Na2HPO4—0.96 g; H2O—to 100 mL) was added to the mix and the suspension was immediately subjected to vigorous shaking for 10 minutes until homogeneous suspensions were formed.
Preparations of amphotericin B and S44HP were also prepared in the same way.
The antibiotic preparations were singly injected into the mice's tail vein within 1-1.5 hours after the preparation of solutions. […] Each antibiotic was used in a range of doses resulting in 0% to 100% lethality and a minimum of 3 intermediate doses. Animals were randomized into groups, each containing 6 mice.

[7] = tested on: Candida albicans (strain 14053 ATCC); experiment: In vivo antifungal activity, kidney burden in infected mice; conditions: colonies per 1 g of kidney tissue, day 5, individual mice
Protocol: as §3, §4
Animals were infected intravenously with Candida albicans culture at a dose of 1.0 million CFU/mouse (volume 0.1 mL). 30 minutes after infection, the antifungal agents were introduced intravenously into the mice at various doses in a volume of 0.2 mL (at a rate of 0.2 mL/30 second). Each dose was administered daily for four days including the day of infection (0, 1, 2 and 3 days).
As a control, there was a group of untreated mice (infected in the same way with Candida albicans). Also there was a “placebo” group of non-infected animals which were intravenously administered (in the same volume as antifungal agent preparations) 0.2 mL of solvent (phosphatic buffer +5% glucose (1:1)).
On the 5th day of experiment, mice were weighed and euthanized (killed) by a cervical dislocation. Then, in sterile conditions, the Candida albicans burden of each mouse was determined by counting of viable homogenates from the kidneys. The kidneys were removed aseptically and weighed, then pounded in porcelain mortars with sterile corundum. Dilutions of the resulting suspensions were prepared and sowed on Petri dishes with agar Saburo, incubated for 24 hours at a temperature of 35° C. Developed colonies of Candida albicans were then counted and their quantity calculated on the basis of 1 g of kidney tissue.

human blood erythrocytes = experiment: In vitro toxicity study, haemolysis (Table 10); assay type: cell-based; conditions: for Haemolysis of human blood erythrocytes: individual blood samples # 1-3
[8] = tested on: yeasts and filamentous fungi (moulds); experiment: Antifungal susceptibility study (1), overall comparison across the test organisms; assay type: cell-based; conditions: Table 5 MICs
Protocol: The organisms used for susceptibility testing were: Candida albicans ATCC 14053, Cryptococcus humicolus ATCC 9949, Aspergillus niger ATCC 16404 and Fusarium oxysporum VKM F-140 (=CMI, IMI 90473). Organisms were stored on potato dextrose agar […] 50% glycerol solution at -70° C. For short-term storage, stock cultures were stored on agar […] 4° C. The cultures of yeasts were sub-cultured onto Sabouraud dextrose (SAB) agar and incubated for 24 hours at 35° C. (Candida albicans) or for 48 hours at 25° C. (Cryptococcus humicolus) to obtain a freshly grown pure culture. The cultures of moulds were sub-cultured onto potato dextrose agar and incubated for 7 days at 35° C. […] (Fusarium oxysporum) to ensure maximum sporulation. Sterile 96-well flat-bottomed microtitration plates were used for testing. 100 μl of diluted inocula were dispensed into each microdilution well containing 100 μl of the double dilutions of compounds. Drug-free and yeast/mould-free controls were included. Microdilution trays were incubated at 35° C. (Candida albicans and moulds) or 25° C. (Cryptococcus humicolus) without agitation and observed for the presence or absence of visible growth. […] Minimal inhibitory concentrations (MICs) were read at 48 hours.

erythrocytes = experiment: In vitro toxicity study, haemolysis (Tables 11 and 12); assay type: cell-based, horse
Protocol: The toxicity of various nystatin derivatives was tested at 2 and 5 μg/mL and at 25 μM.
Compounds were dissolved in DMSO at 5 mg/mL and 0.1 mL samples with different concentrations were prepared in DMSO. The samples were mixed with 0.9 mL PBS buffer containing 2.5% horse blood (PBS-HB; kept on ice) and incubated at 37° C. for 30 min without agitation.
Cells were pelleted by centrifugation at 5000 rpm for 5 min and haemolysis was evaluated by measuring OD545. 100% haemolysis was defined as the OD545 value obtained from a suspension of 2.5% horse blood in distilled water.

Compound | MIC Candida albicans ATCC 14053 [1] [µg/mL] | MIC Cryptococcus humicolus ATCC 9949 [2] [µg/mL] | MIC Aspergillus niger ATCC 16404 [3] [µg/mL] | MIC Fusarium oxysporum VKM F-140 [4] [µg/mL] | MIC50 [5] [µg/mL] | LD50 [6] [mg/kg] | MTD [6] [mg/kg] | Number of Colonies ([7]; 0.08 mg/kg × 4/24 i.v.) | Number of Colonies ([7]; 0.15 mg/kg × 4/24 i.v.) | Number of Colonies ([7]; 0.3 mg/kg × 4/24 i.v.) | Number of Colonies ([7]; 0.6 mg/kg × 4/24 i.v.) | Haemolysis of human blood erythrocytes, MEAN ± SE (human blood erythrocytes; 2 μg/mL) [%] | Haemolysis of human blood erythrocytes (human blood erythrocytes; 2 μg/mL) | Haemolysis of human blood erythrocytes, MEAN ± SE (human blood erythrocytes; 5 μg/mL) [%] | Haemolysis of human blood erythrocytes (human blood erythrocytes; 5 μg/mL) | anti-fungal activity compared with Amphotericin B and S44HP [8] | Haemolysis of erythrocytes, Mean ± S.E.M. (erythrocytes; 25 μM (Table 12)) [%] | Haemolysis of erythrocytes (erythrocytes; 25 μM, individual blood samples (Table 12)) | Haemolysis of erythrocytes, Mean ± SE (erythrocytes; 5 μg/mL (Table 11)) [%] | Haemolysis of erythrocytes (erythrocytes; 5 μg/mL, individual blood samples # 1-3 (Table 11))
C[C@@H]1[C@H](O)[C@@H](C)/C=C/C=C/C=C/C=C/C=C/C=C/C=C/[C@H](O[C@@H]2O[C@H](C)[C@@H](O)[C@H](N)[C@@H]2O)C[C@@H]2O[C@](O)(C[C@@H](O)[C@H](O)CC[C@@H](O)C[C@@H](O)C[C@@H](O)CC(=O)O[C@H]1C)C[C@H](O)[C@H]2C(=O)O [Compound S44HP, reference compound] | 1 (≈ 1.08 µM) | 1 (≈ 1.08 µM) | 1 (≈ 1.08 µM) | 4 (≈ 4.33 µM) | 0.12 (≈ 0.13 µM) | 2.05 | 0.64 | 2.7 × 10^4 and 8.0 × 10^4 and 8.2 × 10^4 | 8.0 × 10^3 and 6.4 × 10^3 and 1.6 × 10^4 | 2.7 × 10^3 and 9.4 × 10^3 and 1.3 × 10^4 | 2.5 × 10^3 and 8.8 × 10^3 and 1.2 × 10^3 |  |  |  |  |  |  |  |  | 
COC(=O)C(CO)NC(=O)C1C(O)CC2(O)CC(O)C(O)CCC(O)CC(O)CC(O)CC(=O)OC(C)C(C)C(O)C(C)C=CC=CC=CC=CC=CC=CC=CC(OC3OC(C)C(O)C(N)C3O)CC1O2 (centres unmarked) [Compound 13] | 1 (≈ 0.975 µM) | 1 (≈ 0.975 µM) | 1 (≈ 0.975 µM) | 4 (≈ 3.9 µM) |  |  |  |  |  |  |  | 3.7 ± 0.6 | 3.3% and 3.0% and 4.9% | 14.5 ± 0.5 | 15.5% and 14% and 14.2% | comparable anti-fungal activity to Amphotericin B and S44HP |  |  |  | 
CCOC(=O)CNC(=O)C1C(O)CC2(O)CC(O)C(O)CCC(O)CC(O)CC(O)CC(=O)OC(C)C(C)C(O)C(C)C=CC=CC=CC=CC=CC=CC=CC(OC3OC(C)C(O)C(N)C3O)CC1O2 (centres unmarked) [Compound 9] | 1 (≈ 0.991 µM) | 1 (≈ 0.991 µM) | 2 (≈ 1.98 µM) | 4 (≈ 3.96 µM) | 0.13 (≈ 0.129 µM) |  |  |  |  |  |  |  |  |  |  | comparable anti-fungal activity to Amphotericin B and S44HP | 18.4 ± 1.9 | 18.0% and 16.7% and 22.4% and 25% and 16.2% and 12.2% |  | 
CC1C=CC=CC=CC=CC=CC=CC=CC(OC2OC(C)C(O)C(N)C2O)CC2OC(O)(CC(O)C(O)CCC(O)CC(O)CC(O)CC(=O)OC(C)C(C)C1O)CC(O)C2C(=O)N1CCN(CCO)CC1 (centres unmarked) [Compound 15] | 1 (≈ 0.965 µM) | 2 (≈ 1.93 µM) | 2 (≈ 1.93 µM) | 4 (≈ 3.86 µM) | 0.20 (≈ 0.193 µM) |  |  |  |  |  |  |  |  |  |  |  |  |  | 2.6 ± 0.1 | 2.8% and 2.4% and 2.7%
CC1C=CC=CC=CC=CC=CC=CC=CC(OC2OC(C)C(O)C(N(CCCN)CCCN)C2O)CC2OC(O)(CC(O)C(O)CCC(O)CC(O)CC(O)CC(=O)OC(C)C(C)C1O)CC(O)C2C(=O)O (centres unmarked) [Compound 22] | 1 (≈ 0.963 µM) | 1 (≈ 0.963 µM) | 1 (≈ 0.963 µM) | 1 (≈ 0.963 µM) | 0.07 (≈ 0.0674 µM) |  |  |  |  |  |  |  |  |  |  | comparable anti-fungal activity to Amphotericin B and S44HP |  |  |  | 
COC(=O)C(CO)NC(=O)C1C(O)CC2(O)CC(O)C(O)CCC(O)CC(O)CC(O)CC(=O)OC(C)C(C)C(O)C(C)C=CC=CC=CC=CC=CC=CC=CC(OC3OC(C)C(O)C(N)C3O)CC1O2 (mixture of isomers) [Compound 14] | 1 | 1 | 2 | 4 |  |  |  |  |  |  |  | 2.5 ± 0.07 | 2.7% and 2.5% (2×) | 4.9 ± 0.2 | 4.8% and 4.5% and 5.3% | comparable anti-fungal activity to Amphotericin B and S44HP |  |  |  | 
